Measurements as given in patent publication US20140045860A1, “SMALL MOLECULE INHIBITORS FOR TREATING PARASITIC INFECTIONS” (NEW YORK UNIVERSITY, priority 2011, published 2014).
Several values for one entry are separate records, joined by “and”; a condition that tells them apart may be missing. Identical values can stand only once.

System: T. b. rhod.
Assay: In vitro counter screen, T. b. rhod.
Type: cell-based
Conditions: read-out: T. b. rhod. (IC50, ug/mL)
Method: (§1) In vitro counter screens were performed to confirm our findings.
`C[C@H](CO)N1C[C@H](C)[C@@H](CN(C)Cc2ccc(C(F)(F)F)cc2)Oc2c(NC(=O)c3ccncc3)cccc2C1=O` [Compound 13] gave an IC50 of 3.49 µg/mL.
Work on `C[C@H]1CN([C@@H](C)CO)C(=O)c2cccc(NC(=O)c3ccncc3)c2O[C@H]1CN(C)Cc1ccccc1` [Compound 17] yielded an IC50 of 6.14 µg/mL.
For `C[C@H]1CN([C@@H](C)CO)C(=O)c2cccc(NC(=O)c3ccncc3)c2O[C@H]1CN(C)Cc1ccc(-c2ccccc2)cc1` [Compound 20], the IC50 was 6.41 µg/mL.

Same assay, conditions: same result as ug/mL, in uM; read-out: T. b. rhod (IC50 uM)
For `C[C@@H]1CN([C@H](C)CO)C(=O)c2cccc(NC(=O)c3ccncc3)c2O[C@H]1CN(C)Cc1ccc2c(c1)OCO2` [Compound 8], the IC50 was 12.5 µM.
`C[C@H](CO)N1C[C@H](C)[C@@H](CN(C)Cc2ccc(C(F)(F)F)cc2)Oc2c(NC(=O)c3ccncc3)cccc2C1=O` [Compound 13] showed an IC50 of 6.12 µM.
In the case of `C[C@H]1CN([C@@H](C)CO)C(=O)c2cccc(NC(=O)c3ccncc3)c2O[C@H]1CN(C)Cc1ccccc1` [Compound 17], the IC50 is reported as 12.2 µM.
`C[C@H]1CN([C@@H](C)CO)C(=O)c2cccc(NC(=O)c3ccncc3)c2O[C@H]1CN(C)Cc1ccc(-c2ccccc2)cc1` [Compound 20] showed an IC50 of 11.1 µM.

System: T. cruzi
Assay: In vitro counter screen, T. cruzi
Type: cell-based
Conditions: Trypanosoma cruzi, read-out: T. cruzi (IC50 uM)
Method: A high-throughput screen of small molecules was performed in duplicate in the recombinant Tulahuen strain of T. cruzi stably expressing a beta-galactosidase reporter gene. Trypomastogote-stage parasites were co-cultured with mouse fibroblast NIH/3T3 host cells, (Buckner F S, Verlinde C L, La Flamme A C, Van Voorhis W C. Efficient technique for screening drugs for activity against Trypanosoma cruzi using parasites expressing beta-galactosidase. Antimicrob Agents Chemother. 1996; 40(11): 2592-2597). Signal was normalized to neutral (DMSO) controls, and a 75% inhibition cutoff was used to define a hit. Compounds initially designated as hits were retested in dose in the primary assay to confirm their inhibitory activity. In parallel, compounds were tested in toxicity assays against NIH/3T3 host cells to determine if these compounds were cytotoxic to mammalian cells and thus, false positives. Compounds that reduced the viability of NIH/3T3 cells were excluded as viable hits. A subset of hits were then tested in a similar infection assay with the Tulahuen strain of T. cruzi infecting murine L-6 cells and the intracellular T. cruzi immunofluorescence assay described below.
as §1
Compound `C[C@@H]1CN([C@H](C)CO)C(=O)c2cccc(NC(=O)c3ccncc3)c2O[C@H]1CN(C)Cc1ccc2c(c1)OCO2` [Compound 8] has an IC50 of 0.143 µM.
`C[C@H](CO)N1C[C@H](C)[C@@H](CN(C)Cc2ccc(C(F)(F)F)cc2)Oc2c(NC(=O)c3ccncc3)cccc2C1=O` [Compound 13] gave an IC50 of 0.875 µM.
Compound `C[C@H]1CN([C@@H](C)CO)C(=O)c2cccc(NC(=O)c3ccncc3)c2O[C@H]1CN(C)Cc1ccccc1` [Compound 17] has an IC50 of 0.39 µM.
`C[C@H]1CN([C@@H](C)CO)C(=O)c2cccc(NC(=O)c3ccncc3)c2O[C@H]1CN(C)Cc1ccc(-c2ccccc2)cc1` [Compound 20] showed an IC50 of 0.394 µM.

Same assay, conditions: Trypanosoma cruzi, read-out: T. cruzi IC50 (ug/mL)
Compound `C[C@H](CO)N1C[C@H](C)[C@@H](CN(C)Cc2ccc(C(F)(F)F)cc2)Oc2c(NC(=O)c3ccncc3)cccc2C1=O` [Compound 13] has an IC50 of 0.499 µg/mL.
Work on `C[C@H]1CN([C@@H](C)CO)C(=O)c2cccc(NC(=O)c3ccncc3)c2O[C@H]1CN(C)Cc1ccccc1` [Compound 17] yielded an IC50 of 0.196 µg/mL.
Compound `C[C@H]1CN([C@@H](C)CO)C(=O)c2cccc(NC(=O)c3ccncc3)c2O[C@H]1CN(C)Cc1ccc(-c2ccccc2)cc1` [Compound 20] has an IC50 of 0.228 µg/mL.

System: L. don. axen.
Assay: In vitro counter screen, L. don. axen.
Type: cell-based
Conditions: read-out: L. don. Axen (IC50 uM)
Method: as §1
Work on `C[C@@H]1CN([C@H](C)CO)C(=O)c2cccc(NC(=O)c3ccncc3)c2O[C@H]1CN(C)Cc1ccc2c(c1)OCO2` [Compound 8] yielded an IC50 greater than 183 µM.

Same assay, conditions: read-out: L. don. axen. IC50
`C[C@H](CO)N1C[C@H](C)[C@@H](CN(C)Cc2ccc(C(F)(F)F)cc2)Oc2c(NC(=O)c3ccncc3)cccc2C1=O` [Compound 13] showed an IC50 of 16.3 µg/mL.
For `C[C@H]1CN([C@@H](C)CO)C(=O)c2cccc(NC(=O)c3ccncc3)c2O[C@H]1CN(C)Cc1ccccc1` [Compound 17], the IC50 was greater than 100 µg/mL.
For `C[C@H]1CN([C@@H](C)CO)C(=O)c2cccc(NC(=O)c3ccncc3)c2O[C@H]1CN(C)Cc1ccc(-c2ccccc2)cc1` [Compound 20], the IC50 was 6.47 µg/mL.

Same assay, conditions: same result as ug/mL, in uM; read-out: L. don. Axen (IC50 uM)
In the case of `C[C@H](CO)N1C[C@H](C)[C@@H](CN(C)Cc2ccc(C(F)(F)F)cc2)Oc2c(NC(=O)c3ccncc3)cccc2C1=O` [Compound 13], the IC50 is reported as 28.6 µM.
Work on `C[C@H]1CN([C@@H](C)CO)C(=O)c2cccc(NC(=O)c3ccncc3)c2O[C@H]1CN(C)Cc1ccccc1` [Compound 17] yielded an IC50 greater than 199 µM.
In the case of `C[C@H]1CN([C@@H](C)CO)C(=O)c2cccc(NC(=O)c3ccncc3)c2O[C@H]1CN(C)Cc1ccc(-c2ccccc2)cc1` [Compound 20], the IC50 is reported as 11.2 µM.

System: P. falc. K1
Assay: In vitro counter screen, P. falc. K1
Type: cell-based
Conditions: read-out: P. falc. K1 IC50
Method: as §1
`C[C@H](CO)N1C[C@H](C)[C@@H](CN(C)Cc2ccc(C(F)(F)F)cc2)Oc2c(NC(=O)c3ccncc3)cccc2C1=O` [Compound 13] gave an IC50 of 2.95 µg/mL.
`C[C@H]1CN([C@@H](C)CO)C(=O)c2cccc(NC(=O)c3ccncc3)c2O[C@H]1CN(C)Cc1ccccc1` [Compound 17] gave an IC50 of 5.64 µg/mL.
Work on `C[C@H]1CN([C@@H](C)CO)C(=O)c2cccc(NC(=O)c3ccncc3)c2O[C@H]1CN(C)Cc1ccc(-c2ccccc2)cc1` [Compound 20] yielded an IC50 of 1.14 µg/mL.

Same assay, conditions: same result as ug/mL, in uM; read-out: P. falc. K1 (IC50 uM)
`C[C@@H]1CN([C@H](C)CO)C(=O)c2cccc(NC(=O)c3ccncc3)c2O[C@H]1CN(C)Cc1ccc2c(c1)OCO2` [Compound 8] showed an IC50 of 10.6 µM.
Work on `C[C@H](CO)N1C[C@H](C)[C@@H](CN(C)Cc2ccc(C(F)(F)F)cc2)Oc2c(NC(=O)c3ccncc3)cccc2C1=O` [Compound 13] yielded an IC50 of 5.17 µM.
`C[C@H]1CN([C@@H](C)CO)C(=O)c2cccc(NC(=O)c3ccncc3)c2O[C@H]1CN(C)Cc1ccccc1` [Compound 17] showed an IC50 of 11.2 µM.
`C[C@H]1CN([C@@H](C)CO)C(=O)c2cccc(NC(=O)c3ccncc3)c2O[C@H]1CN(C)Cc1ccc(-c2ccccc2)cc1` [Compound 20] showed an IC50 of 1.97 µM.

System: not listed separately
Assay: In vitro counter screen, cytotoxicity L6
Type: cell-based
Conditions: murine
With `C[C@H](CO)N1C[C@H](C)[C@@H](CN(C)Cc2ccc(C(F)(F)F)cc2)Oc2c(NC(=O)c3ccncc3)cccc2C1=O` [Compound 13] the IC50 was 79.7 µM and 45.5 µg/mL.
In the case of `C[C@H]1CN([C@@H](C)CO)C(=O)c2cccc(NC(=O)c3ccncc3)c2O[C@H]1CN(C)Cc1ccccc1` [Compound 17], the IC50 is reported as > 199 µM and > 100 µg/mL.
With `C[C@H]1CN([C@@H](C)CO)C(=O)c2cccc(NC(=O)c3ccncc3)c2O[C@H]1CN(C)Cc1ccc(-c2ccccc2)cc1` [Compound 20] the IC50 was 30.2 µM and 17.5 µg/mL.

Same assay, conditions: murine; L6 cells; same result as ug/mL, in uM; read-out: cytotox, (IC50 uM)
With `C[C@@H]1CN([C@H](C)CO)C(=O)c2cccc(NC(=O)c3ccncc3)c2O[C@H]1CN(C)Cc1ccc2c(c1)OCO2` [Compound 8] the IC50 was greater than 183 µM.
